The values that follow come from patent US20260053861A1, “CELL COMPOSITIONS AND METHODS OF USING THE SAME” (THE REGENTS OF THE UNIVERSITY OF CALIFORNIA, priority 2022, published 2026).

One data set has as its system hPSC-SCs. The experiment in a line: Metabolite measurements by biochemical/colorimetric assays (sorbitol, fructose, lactate, glucose, pyruvate).
Details: not given
Type of data set: cell-based, human.
For `CC(NC(C)(C)C)C(=O)c1cccc(Cl)c1` (stereo not shown) [BP, Bupropion], the “cellular level of fructose increased by high glucose” value was “countered this effect”.

Still in this data set, the particulars now being: SCs, high glucose.
Consider `CC(NC(C)(C)C)C(=O)c1cccc(Cl)c1` (stereo not shown) [BP, Bupropion], for which the “intracellular glucose and sucrose levels” value is “decrease in intracellular glucose and sucrose levels”.

The same data set, now with this note: high glucose.
Consider `CC(NC(C)(C)C)C(=O)c1cccc(Cl)c1` (stereo not shown) [BP, Bupropion], for which the “sorbitol accumulation in SCs” value is given as “reduced sorbitol accumulation in SCs in a dose-dependent manner”.

The next data set has as its system hPSC-SCs.
Test: not given
Details: not given
On to `CC[N+]1(C)[C@@H]2CC[C@H]1CC(OC(=O)[C@@H]1CC[C@@](C(=O)OC3C[C@H]4CC[C@@H](C3)[N+]4(C)CC)(c3ccccc3)c3ccccc31)C2.[Cl-].[Cl-]` (stereo partly drawn) [beta-Belladonnine dichloroethylate], for which the z.score.t is listed as 1.872. (−)-MK 801 hydrogen maleate displayed a z.score.t of 1.657. Compound (−)-Quinpirole hydrochloride displayed a z.score.t of 1.683. On the same count and under the same terms, under Antimycin A stands −1.787; under Avermectin B1, 0.7158; under Bromocryptine mesylate, −1.272.

For Butirosin disulfate salt, the z.score.t is reported as −0.5169. With Colistin sulfate, the z.score.t is given as −0.4139. Consider Cotinine (−), for which the z.score.t is given as −0.139. Cyanocobalamin displayed a z.score.t of 0.837.

As for Cytisine (−), the z.score.t was −0.1641. On to Deptropine citrate, for which the z.score.t is recorded as −0.247.

As for Dihydroergotamine tartrate, the z.score.t is −0.5417. The same measure, in the same setting: under Foliosidine stands −0.2802. In the case of Guanadrel sulfate, the z.score.t is recorded as 0.7158. As for Helveticoside, the z.score.t came to 1.053. Isoetharine mesylate salt had a z.score.t of 0.5976. Still for that read-out and setting: the value for Lycorine hydrochloride was −2.213; that for Mephentermine hemisulfate was −0.2359; that for Merbromin was −0.7567.

On to Pridinol methanesulfonate salt, for which the z.score.t is recorded as −0.7183.

In the case of Retrorsine, the z.score.t was −0.3526.

Take Solanine alpha: the z.score.t is −0.2486. Take Tyloxapol: the z.score.t is given as −1.008. For Viomycin sulfate, the z.score.t is recorded as −0.2329.

Staying with this data set, now noted: 30 mM glucose, compounds at 1 μM, 72 hours, DAPI negative RFP positive cells.
Regarding `CC(NC(C)(C)C)C(=O)c1cccc(Cl)c1` (stereo not shown) [BP, Bupropion], the “normalized (transformed) viability z-score, number of viable cells” value is reported as “top hit compound”.

The same data set, now with this note: HTS viability of hPSC-SCs in the presence of 30 mM glucose; Prestwick library; Table S4.
On to `CCCCNC(=O)NS(=O)(=O)c1ccc(C)cc1` [tolbutamide, Tolbutamide, reference compound], for which the z.score.t was 2.089. With (S)-(−)-Atenolol, the z.score.t is reported as 1.606. For the compound (S)-propranolol hydrochloride, the z.score.t turned out to be 0.6803.

As for Alverine citrate salt, the z.score.t is reported as −1.025. Take Beta-Escin: the z.score.t is on record as −0.5583. Take Carbinoxamine maleate salt: the z.score.t amounted to 0.07936. With Clofilium tosylate, the z.score.t is recorded as −0.6227. Turning to Dihydroergotoxine mesylate, the z.score.t is 0.9377. Eburnamonine (−): the z.score.t turned out to be 1.516. Turning to Ifenprodil tartrate, the z.score.t is given as −1.132. Iobenguane sulfate: the z.score.t is 0.3845. On the same count and under the same terms, the value for Ketanserin tartrate hydrate was −1.137; that for Pizotifen malate was −0.2329; that for S(−)Eticlopride hydrochloride was −0.5169.

Take Spiramycin: the z.score.t came out at 0.7158. Still for that read-out and setting: under Terbutaline hemisulfate stands −1.238; under Thioproperazine dimesylate, −1.223; under Timolol maleate salt, −0.6395. The same measure, in the same setting: the value for Trimeprazine tartrate was −0.411; that for Trimipramine maleate salt was 0.2361. As to Tropicamide, the z.score.t is on record as −0.1241. In the case of Verteporfin, the z.score.t is reported as −1.551.

Vitamin K2: the z.score.t is on record as −0.4141.

The data set is the same for the next values; noted with them: human.
For `CC(NC(C)(C)C)C(=O)c1cccc(Cl)c1` (stereo not shown) [BP, Bupropion], the highest non-toxic dose stood at 0.7 µM.

Staying with this data set, now noted: various concentrations, high glucose.
Consider `CC(NC(C)(C)C)C(=O)c1cccc(Cl)c1` (stereo not shown) [BP, Bupropion], for which the “rescue of viability of high glucose treated SC cultures, dose response” value was “dose-dependent effect on rescuing the viability”.

For the next data set, the system named is NF-kB p65. The experiment in a line: NF-kB p65 staining, nuclear localization in SCs exposed to high glucose. Format: cell-based, human.
Details: not given
As to `CC(NC(C)(C)C)C(=O)c1cccc(Cl)c1` (stereo not shown) [BP, Bupropion], the “NF-kB p65 localization to the nucleus in SCs exposed to high glucose” value was “counteracted by BP treatment”.

In a further data set the test system is patients suffering from neuropathic pain.
Test: not given
To be noted: cited from earlier work.
Consider `CC(NC(C)(C)C)C(=O)c1cccc(Cl)c1` (stereo not shown) [BP, Bupropion], for which the “benefit in patients with neuropathic pain” value is “some benefit”.

In a further data set the test system is hPSC-SCs. As to the kind of experiment: Untargeted primary metabolomics of glucose and BP treated SCs. Type of data set: cell-based, human. To be noted: SCs.
As for `CC(NC(C)(C)C)C(=O)c1cccc(Cl)c1` (stereo not shown) [BP, Bupropion], the cellular lactate level result is reported as “reduced after BP treatment”; the “levels of TCA cycle metabolites succinate, fumarate, citrate, α-ketoglutarate and malate” value is given as “increase in the detected levels”.

The data set is the same for the next values; noted with them: high glucose.
For `CC(NC(C)(C)C)C(=O)c1cccc(Cl)c1` (stereo not shown) [BP, Bupropion], the “cellular pyruvate increased by high glucose” value is “lowered by BP treatment”; the “concentration of citrate reduced by high glucose” value is “reversed by BP treatment”; the “urea concentration and transporter SLC14A2 mRNA level” value is “decreased in the presence of BP”.

Test system in a further data set: not listed separately
The experiment in a line: Blood glucose levels in STZ-treated mice. The conditions noted are these: BP in chow.
As to `CC(NC(C)(C)C)C(=O)c1cccc(Cl)c1` (stereo not shown) [BP, Bupropion], the blood glucose levels entry is recorded as “does not affect glucose levels”.

The test system of a further data set is SOX10+ cells in 2D or 3D NC cultures. The experiment in a line: Maintenance of SOX10 expression in cultured NC precursors with signaling modulators. Format: cell-based, human. The conditions noted are these: CHIR99021 exposure together with FGF2, 3D aggregates. From the text:
Initial hPSC-based NC differentiation protocols relied on the delamination of putative NC cells from neuroepithelial lineages combined with the prospective isolation of p75+ and/or HNK1+ NC precursors (Bajpai et al., 2010; Lee et al., 2007). While those protocols yield various NC-derived lineages, the levels of SOX10 expression are generally low. In contrast, more directed NC induction protocols based on timed exposure to activators of WNT signaling show robust induction of SOX10 in the majority of cells by day 11 of differentiation (Barber et al., 2019; […] et al., 2016; Menendez et al., 2011; Mica et al., 2013; Tchieu et al., 2017). Upon further culture, those hPSC-derived NC cells can be directed into SOX10+ melanocytes (Mica et al., 2013) but also give rise to SOX10-mesenchymal and neuronal precursors ([…] et al., 2016; Lee et al., 2007; Mica et al., 2013; Tchieu et al., 2017). Since SOX10 is a key marker in the SC lineage (Finzsch et al., 2010), we first screened for conditions that maintained its expression in cultured NC precursors. We determined the percentage of SOX10+ cells in 2D or 3D NC cultures in the presence of modulators of EGF, FGF, WNT, Notch, TGFβ, BMP and endothelin 3 signaling.
Take `Cc1c[nH]c(-c2cnc(NCCNc3ccc(C#N)cn3)nc2-c2ccc(Cl)cc2Cl)n1` [CHIR99021, reference compound]: the “SOX10 expression in cultured NC precursors” value is “maintenance of SOX10 expression in 3D aggregates”. FGF2: the “SOX10 expression in cultured NC precursors” value is given as “maintenance of SOX10 expression in 3D aggregates”.
